Measurements reported in patent publication US20230279016A1, “Tetrahydropyrazolopyrimidines and Related Analogs for Inhibiting YAP/TAZ-TEAD” (THE KATHOLIEKE UNIVERSITEIT LEUVEN, priority 2021, published 2023).

How the values were obtained:
Type in all cases: cell-based
[1] = tested on: NCI-H2052 mesothelioma cell line; test: Mesothelioma cell line proliferation assay, NCI-H2052; conditions: NCI-H2052, 6 days with compound, cell viability by ATPlite
Experimental: (§1) Mesothelioma cell lines, NCI-H226 and NCI-H2052 (all sourced from the ATCC cell culture collection) are plated in 96-well plates (Corning® 96 Well White Polystyrene Microplate clear flat bottom, white polystyrene (TC-Treated)), at 1500 cells/well in full medium (RPMI 1640 ATCC modification with L-glutamine, HEPES, Phenol Red, Sodium Pyruvate, High glucose, Low sodium bicarbonate and 10% fetal bovine serum). Cells are incubated overnight at 37° C. in an incubator with 5% CO2. Then compounds, dissolved in DMSO, are added in dose-response. Cells are incubated with compound dilutions for another 6 days at 37° C. in an incubator with 5% CO2. Cell viability is quantitated using the ATPlite kit (Perkin-Elmer) and the luminescence is read-out using an Envision instrument (Perkin-Elmer). The amount of relative light units produced using the ATPlite kit is used to calculated percent of inhibition.
(§2) The activities of example compounds tested are depicted in the table below. The activity ranges A, B and C refer to EC50 values in the mesothelioma cell line proliferation assay as described as follows: “A”: EC50 <1 μM; “B” : 1 μM EC50 ≤10 μM and “C” : EC50 >10 μM. NT: not tested.

[2] = tested on: YAP/TAZ-TEAD transcription; test: Reporter gene assay for measuring the inhibition of YAP/TAZ-TEAD transcription (TEAD-responsive element luciferase reporter in Hek293T cells); conditions: Hek293T cells transiently transfected with TEAD-responsive element luciferase reporter, 24 hours incubation
Outline: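 Hek293T cells transiently transfected with TEAD-responsive luciferase reporter, exposed to compound for 24 h at 37° C/5% CO2, then read by luminescence. Percent inhibition normalized to vehicle (0%) and positive control inhibitor (100%); EC50 reported as activity ranges.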

[3] = tested on: NCI-H226 mesothelioma cell line; test: Mesothelioma cell line proliferation assay, NCI-H226; conditions: NCI-H226, 6 days with compound, cell viability by ATPlite
Experimental: as §1, §2

Row | SMILES | EC50 [1] [nM] | EC50 [2] [nM] | EC50 [3] [nM] | EC50 ([1]; Homo sapiens, NCI-H2052, 144 h) [nM] | EC50 ([2]; Homo sapiens, HEK-293T, 24 h) [nM] | EC50 ([3]; Homo sapiens, NCI-H226, 144 h) [nM]
1 | C=CC(=O)NCC1CN(c2ccc(OC(F)F)cc2)c2ccnn2C1 (single isomer, unassigned) [Cpd. No. 012-En1, (R)- or (S)-N-((4-(4-(difluoromethoxy)phenyl)-4,5,6,7-tetrahydropyrazolo[1,5-a]pyrimidin-6-yl)methyl)acrylamide] | < 1000 | < 1000 | < 1000 | – | – | –
2 | C=CC(=O)NCC1CN(c2ccc(OC(F)F)cc2)c2ccnn2C1 (single isomer, unassigned) [Cpd. No. 012-En2, (R)- or (S)-N-((4-(4-(difluoromethoxy)phenyl)-4,5,6,7-tetrahydropyrazolo[1,5-a]pyrimidin-6-yl)methyl)acrylamide] | > 10000 | < 1000 | < 1000 | – | – | –
3 | C=CC(=O)NCC1CN(c2ccc(C(C)C)cc2)c2ccnn2C1 (single isomer, unassigned) [Cpd. No. 013-En1, (R)- or (S)-N-((4-(4-isopropylphenyl)-4,5,6,7-tetrahydropyrazolo[1,5-a]pyrimidin-6-yl)methyl)acrylamide] | < 1000 | < 1000 | < 1000 | – | – | –
4 | C=CC(=O)NCC1CN(c2ccc(C(C)C)cc2)c2ccnn2C1 (single isomer, unassigned) [Cpd. No. 013-En2, (R)- or (S)-N-((4-(4-ispropylphenyl)-4,5,6,7-tetrahydropyrazolo[1,5-a]pyrimidin-6-yl)methyl)acrylamide] | 1000 to 10000 | < 1000 | < 1000 | – | – | –
5 | C=CC(=O)NCC1CN(c2ccc(C(C)(C)C)cc2)c2ccnn2C1 (single isomer, unassigned) [Cpd. No. 014-En1, (R)- or (S)-N-((4-(4-(tert-butyl)phenyl)-4,5,6,7-tetrahydropyrazolo[1,5-a]pyrimidin-6-yl)methyl)acrylamide] | – | – | – | < 1000 | < 1000 | < 1000
6 | C=CC(=O)NCC1CN(c2ccc(C(F)(F)F)cc2F)c2ccnn2C1 (single isomer, unassigned) [Cpd. No. 016-En1, (R)- or (S)-N-((4-(2-fluoro-4-(trifluoromethyl)phenyl)-4,5,6,7-tetrahydropyrazolo[1,5-a]pyrimidin-6-yl)methyl)acrylamide] | < 1000 | < 1000 | < 1000 | – | – | –
7 | C=CC(=O)NCC1CN(c2ccc(C(F)(F)F)cc2F)c2ccnn2C1 (single isomer, unassigned) [Cpd. No. 016-En2, (R)- or (S)-N-((4-(2-fluoro-4-(trifluoromethyl)phenyl)-4,5,6,7-tetrahydropyrazolo[1,5-a]pyrimidin-6-yl)methyl)acrylamide] | > 10000 | < 1000 | < 1000 | – | – | –
8 | C=CC(=O)NCC1CN(c2ccc(OC(F)(F)F)cc2F)c2ccnn2C1 (single isomer, unassigned) [Cpd. No. 019-En1, (R)- or (S)-N-((4-(2-fluoro-4-(trifluoromethoxy)phenyl)-4,5,6,7-tetrahydropyrazolo[1,5-a]pyrimidin-6-yl)methyl)acrylamide] | < 1000 | – | – | – | < 1000 | < 1000
9 | C=CC(=O)NCC1CN(c2ccc(OC(F)(F)F)cc2F)c2ccnn2C1 (single isomer, unassigned) [Cpd. No. 019-En2, (R)- or (S)-N-((4-(2-fluoro-4-(trifluoromethoxy)phenyl)-4,5,6,7-tetrahydropyrazolo[1,5-a]pyrimidin-6-yl)methyl)acrylamide] | > 10000 | < 1000 | < 1000 | – | – | –
10 | C=CC(=O)NCC1CN(c2ccc(SC(F)(F)F)cc2)c2ccnn2C1 (single isomer, unassigned) [Cpd. No. 020-En1, (R)- or (S)-N-((4-(4-((trifluoromethyl)thio)phenyl)-4,5,6,7-tetrahydropyrazolo[1,5-a]pyrimidin-6-yl)methyl)acrylamide] | – | < 1000 | < 1000 | < 1000 | – | –
11 | C=CC(=O)NCC1CN(c2ccc(SC(F)(F)F)cc2)c2ccnn2C1 (single isomer, unassigned) [Cpd. No. 020-En2, (R)- or (S)-N-((4-(4-((trifluoromethyl)thio)phenyl)-4,5,6,7-tetrahydropyrazolo[1,5-a]pyrimidin-6-yl)methyl)acrylamide] | 1000 to 10000 | < 1000 | > 10000 | – | – | –
12 | C=CC(=O)NCC1CN(c2ccc(C3CC3)cc2)c2ccnn2C1 (single isomer, unassigned) [Cpd. No. 022-En1, (R)- or (S)-N-((4-(4-cyclopropylphenyl)-4,5,6,7-tetrahydropyrazolo[1,5-a]pyrimidin-6-yl)methyl)acrylamide] | < 1000 | – | – | – | < 1000 | < 1000
13 | C=CC(=O)NCC1CN(c2ccc(C3CC3)cc2)c2ccnn2C1 (single isomer, unassigned) [Cpd. No. 022-En2, (R)- or (S)-N-((4-(4-cyclopropylphenyl)-4,5,6,7-tetrahydropyrazolo[1,5-a]pyrimidin-6-yl)methyl)acrylamide] | > 10000 | < 1000 | < 1000 | – | – | –
14 | C=CC(=O)NCC1CN(c2ccc(S(F)(F)(F)(F)F)cc2)c2ccnn2C1 (single isomer, unassigned) [Cpd. No. 023-En1, (R)- or (S)-N-((4-(4-(pentafluoro-l6-sulfaneyl)phenyl)-4,5,6,7-tetrahydropyrazolo[1,5-a]pyrimidin-6-yl)methyl)acrylamide] | < 1000 | < 1000 | < 1000 | – | – | –
15 | C=CC(=O)NCC1CN(c2ccc(S(F)(F)(F)(F)F)cc2)c2ccnn2C1 (single isomer, unassigned) [Cpd. No. 023-En2, (R)- or (S)-N-((4-(4-(pentafluoro-l6-sulfaneyl)phenyl)-4,5,6,7-tetrahydropyrazolo[1,5-a]pyrimidin-6-yl)methyl)acrylamide] | < 1000 | < 1000 | < 1000 | – | – | –
16 | C=CC(=O)NC[C@@H]1CN(Cc2ccccc2)c2ccnn2C1 (single isomer, unassigned) [Cpd. No. 049-En1, (R)- or (S)-((4-benzyl-4,5,6,7-tetrahydropyrazolo[1,5-a]pyrimidin-6-yl)methyl)acrylamide] | 1000 to 10000 | > 20000 | 1000 to 10000 | – | – | –
17 | C=CC(=O)NC1CN(c2ccc(C(F)(F)F)cc2F)c2ccnn2C1 (single isomer, unassigned) [Cpd. No. 065-En1, (R)- or (S)-N-(4-(2-fluoro-4-(trifluoromethyl)phenyl)-4,5,6,7-tetrahydropyrazolo[1,5-a]pyrimidin-6-yl)acrylamide] | – | – | – | < 1000 | < 1000 | < 1000
18 | C=CC(=O)NCC1Cc2c(cnn2C(F)F)N(c2ccc(C(F)(F)F)cc2)C1 (single isomer, unassigned) [Cpd. No. 084-En1, (R)- or (S)-N-((1-(difluoromethyl)-4-(4-(trifluoromethyl)phenyl)-4,5,6,7-tetrahydro-1H-pyrazolo[4,3-b]pyridin-6-yl)methyl)acrylamide] | – | – | – | < 1000 | < 1000 | < 1000
19 | C=CC(=O)NCC1Cc2c(cnn2C(F)F)N(c2ccc(C(F)(F)F)cc2)C1 (single isomer, unassigned) [Cpd. No. 084-En2, (R)- or (S)-N-((1-(difluoromethyl)-4-(4-(trifluoromethyl)phenyl)-4,5,6,7-tetrahydro-1H-pyrazolo[4,3-b]pyridin-6-yl)methyl)acrylamide] | < 1000 | < 1000 | < 1000 | – | – | –
20 | C=CC(=O)NC[C@H]1Cc2nn(C(F)F)cc2N(c2ccc(C(F)(F)F)cc2)C1 (single isomer, unassigned) [Cpd. No. 085-En1, (R)- or (S)-N-(2-(difluoromethyl)-4-(4-(trifluoromethyl)phenyl)-4,5,6,7-tetrahydro-2H-pyrazolo[4,3-b]pyridin-6-yl)methyl)acrylamide] | < 1000 | < 1000 | < 1000 | – | – | –
21 | C=CC(=O)NCC1Cc2nn(C(F)F)cc2N(c2ccc(C(F)(F)F)cc2)C1 (single isomer, unassigned) [Cpd. No. 085-En2, (R)- or (S)-N-((2-(difluoromethyl)-4-(4-(trifluoromethyl)phenyl)-4,5,6,7-tetrahydro-2H-pyrazolo[4,3-b]pyridin-6-yl)methyl)acrylamide] | – | – | – | < 1000 | < 1000 | < 1000
22 | FC(F)(F)c1ccc(N2CC(C3CC(Br)=NO3)Cn3nccc32)cc1 (single isomer, unassigned) [Cpd. No. 086-Dia1, 3-bromo-5-(4-(4-(trifluoromethyl)phenyl)-4,5,6,7-tetrahydropyrazolo[1,5-a]pyrimidin-6-yl)-4,5-dihydroisoxazole] | – | – | – | < 1000 | < 1000 | < 1000
